Assay results as given in article PMC7714071, “Interaction of amyloid beta with humanin and acetylcholinesterase is modulated by ATP” (FEBS Open Bio, 2020).

Tested on: Aβ from H1299 cell-conditioned media
Experiment: ELISA, HN (endogenous and exogenously added) and AChE bound to Aβ from H1299 media on 82E1 antibody
Format: binding, human
Conditions: H1299 media, Fig. 6B
Procedure: Human NSCLC cell lines, A549 (ATCC CCL‐185) and H1299 (ATCC CRL‐5803), were purchased from the American Type Culture Collection (ATCC, Manassas, VA, USA). Cells were seeded as we reported earlier in 5 mL HyClone Dulbecco's modified Eagle's medium/nutrient mixture F‐12 (DMEM/F12) (GE Healthcare Life Sciences, Pittsburgh, PA, USA), supplemented with 10% Fetalgro bovine growth serum (FBS; RMBIO, Missoula, MT, USA), 50 U·mL^−1 penicillin, and […] streptomycin (Invitrogen, Life Technologies, Carlsbad, CA, USA) in 25‐cm^2 tissue culture flasks, and allowed to grow overnight in an incubator at 37 °C, 95% humidity, and 5% CO2. The cells were counted after trypan blue staining, with a hemocytometer.
ELISAs were carried out as we previously reported. Nunc MaxiSorp 96‐well flat bottom plate (Thermo Fisher) wells were coated with samples as indicated. The plates were incubated overnight at 4 °C on a shaker to allow binding of the samples to the plate wells. After the incubation, the wells were washed 4× with TBST, filled with 400 µL blocking buffer (110 mM KCl, 5 mM NaHCO3, 5 mM MgCl2, 1 mM EGTA, 0.1 mM CaCl2, 20 mM HEPES, 1% BSA, pH 7.4), and incubated with shaking overnight at 4 °C. The wells were then washed 4× with TBST, and 100 µL of sample at the desired concentration was added to each well and incubated with shaking overnight at 4 °C. TBST was then used to wash the wells 4× before proceeding in one of two ways: (a) biotinylated samples were analyzed by adding 100 µL streptavidin–HRP conjugate in TBST (1 : 2500 dilution) to the samples followed by incubation for 3 h at RT on a shaker, or (b) samples without biotin were analyzed by adding 100 µL TBST containing the primary antibody as per the manufacturer's recommendation, incubating for 3 h at RT on a shaker, followed by washing the wells 4× with TBST. […] The reaction was stopped with 100 µL 2 M H2SO4 after incubating at RT for 0.5–15 min, resulting in a yellow color change, measured by absorbance at 450 nm. […] Before analysis, the OD from the data was corrected for nonspecific binding by subtracting the mean background absorbance for the negative controls. […] Statistical analysis was determined by the […] […] Data were expressed as the mean ± SD. […]
Anti‐Aβ‐specific antibodies (82E1) were added (1 : 1000 dilution) to ELISA plate wells (Fig. 6). The wells were blocked, and then, 300 µL of the conditioned media (0.5 µg·µL^−1) of A549 or H1299 cells, 72 h postserum starvation, was added in the absence or presence of increasing HN concentrations, and the HN and AChE bound were detected using the corresponding specific primary antibodies. Fold change relative to controls that included all components but without the primary antibodies was calculated and fit with a nonlinear regression curve using the […] […]

Molecule | effect of ATP on binding of exogenously added HN to Aβ (0.1 mM, 1 mM ATP (more pronounced at 1 mM)) | effect of ATP on binding of endogenous HN to Aβ (increasing ATP (0.1 mM, 1 mM; more pronounced at 1 mM), 82E1) | HN concentration at which signal begins to level off (exogenous HN) | binding of exogenous HN to Aβ (increasing exogenous HN, 82E1)
Nc1ncnc2c1ncn2[C@@H]1O[C@H](COP(=O)(O)OP(=O)(O)OP(=O)(O)O)[C@@H](O)[C@H]1O [ATP, Adenosine triphosphate] | decreased binding of exogenously added HN | increased binding of endogenous HN |  | 
Humanin [HN] |  |  | around 50 nM | increased binding to Aβ
